We go through three molecules from patent US6300317A, “Self-assembling polynucleotide delivery system” (The Regents of the University of California, priority 1995, dated 2001).

Assay [1] has as its system calf thymus DNA. The experiment in a line: Ethidium bromide displacement assay, binding of bis-acridines to double-stranded DNA. The settings on record: computed from ethidium bromide displacement (IC50), noncooperative competitive binding model; read-out: Dissociation Constants of the Bis-acridines from Calf Thymus DNA. How it is done: The affinity of the bis-acridines for calf thymus DNA was calculated from the displacement of ethidium bromide from double stranded nucleic acids (Nielsen, supra). Ethidium displacement was monitored by the decrease of the ethidium bromide fluorescence (ex.=540 nm, em.=610 nm) that occurs when it is released from DNA. The association constants of the bis-acridines relative to ethidium bromide are calculated from their IC50. In this study, spermidine bis-acridine trihydrochloride (SBA.cndot.3HCl) synthesized as described (Nielsen, supra), was used as the reference compound. As a result of the loss of one of its three positive charges, a slight but significant decrease in affinity is observed when the N^4 amino group of spermidine bis-acridine is engaged in an amide bond with the targeting carbohydrate in compound 21 (Gal-bA.cndot.2 HCl). However, we predict an increase in affinity when spermidine bis-acridine is linked to the highly positively charged NLS peptide SEQ ID NO:1. G. Karup et al., Int J Peptide Protein Res (1988) 32:331-343.

In assay [2] the test system is calf thymus DNA. Conditions: constant used to compute the bis-acridine binding constants; read-out: intrinsic dissociation constant for ethidium bromide; cited from earlier work.

Each structure is given as a SMILES string. Like-named read-outs stand apart in the source and are kept apart here.

As for `O=C(CCCCCS[C@@H]1O[C@H](CO)[C@H](O)[C@H](O)[C@H]1O)NCCCC[C@H](NC(=O)CCCCCS[C@@H]1O[C@H](CO)[C@H](O)[C@H](O)[C@H]1O)C(=O)N[C@@H](CCCCNC(=O)CCCCCS[C@@H]1O[C@H](CO)[C@H](O)[C@H](O)[C@H]1O)C(=O)N(CCCCNc1c2ccccc2nc2ccccc12)CCCNc1c2ccccc2nc2ccccc12` [Gal3 Lys2 -bA], in the assay with calf thymus DNA [1], the Kd came out at 5.4 µM.
Same read-out and setting: to `c1ccc2c(NCCCCNCCCNc3c4ccccc4nc4ccccc34)c3ccccc3nc2c1` [SBA · 3HCl, N,N'-bis-(9-acridinyl)-4-aza-1,8-diaminooctane] belongs 0.024 µM.
As for `CC[n+]1c(-c2ccccc2)c2cc(N)ccc2c2ccc(N)cc21` [ethidium bromide], in the assay on calf thymus DNA [2], the Kd is 5.3 µM.
